Patent US20100298141A1, “SUBSTITUTED PYRIDINE N-OXIDE HERBICIDES” (E. I. DU PONT DE NEMOURS AND COMPANY, priority 2007, published 2010)

Columns and labels:
giant foxtail [1] = assay: Test A pre-/postemergence greenhouse test; type: in vivo, Setaria faberi; conditions: for Plant response rating, Foxtail, Giant: 0 to 100 scale where 0 is no effect and 100 is complete control; for Foxtail, Giant plant response rating: 0 to 100 scale
How it was run: (§1)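 Pots of loam–sand soil sown with the test species are sprayed preemergence on the soil surface; emerged seedlings (1–2 leaves, 2–10 cm) are sprayed postemergence at the same time. The vehicle is a non-phytotoxic solvent mixture with surfactant. Injury is scored visually after ~10 d in greenhouse.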

morningglory = assay: Test A pre-/postemergence greenhouse test; type: in vivo, Ipomoea spp.; conditions: for Plant response rating, Morningglory: 0 to 100 scale where 0 is no effect and 100 is complete control; for Morningglory plant response rating: 0 to 100 scale
How it was run: as §1

redroot pigweed = assay: Test A pre-/postemergence greenhouse test; type: in vivo, Amaranthus retroflexus; conditions: for Plant response rating, Pigweed: 0 to 100 scale where 0 is no effect and 100 is complete control; for Pigweed plant response rating: 0 to 100 scale
How it was run: as §1

wheat [2] = assay: Test A pre-/postemergence greenhouse test; type: in vivo, Triticum aestivum; conditions: for Plant response rating, Wheat: 0 to 100 scale where 0 is no effect and 100 is complete control; for Wheat plant response rating: 0 to 100 scale
How it was run: as §1

blackgrass = assay: Test C pre-/postemergence test; type: in vivo, Alopecurus myosuroides
How it was run: (§2)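 Compounds in a non-phytotoxic solvent with surfactant applied preemergence to seeded pots and, at the same time, postemergence to plants 2–18 cm tall (1- to 4-leaf stage). Paddy tests: pots flooded to 3 cm, compound applied into the water, depth held throughout.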

downy brome = assay: Test C pre-/postemergence test; type: in vivo, Bromus tectorum; conditions: for Plant response rating, Bromegrass, Downy: 31 g ai/ha, scale 0 to 100 (0 no effect, 100 complete control)
How it was run: as §2

wheat [3] = assay: Test C pre-/postemergence test; type: in vivo, Triticum aestivum; conditions: for Plant response rating, Wheat: 31 g ai/ha, scale 0 to 100 (0 no effect, 100 complete control)
How it was run: as §2

wild oat = assay: Test C pre-/postemergence test; type: in vivo, Avena fatua; conditions: for Plant response rating, Oat, Wild: 31 g ai/ha, scale 0 to 100 (0 no effect, 100 complete control)
How it was run: as §2

Surinam grass = assay: Test C pre-/postemergence test; type: in vivo, Brachiaria decumbens; conditions: for Plant response rating, Surinam Grass: 31 g ai/ha, scale 0 to 100 (0 no effect, 100 complete control)
How it was run: as §2

cocklebur = assay: Test C pre-/postemergence test; type: in vivo, Xanthium strumarium; conditions: for Plant response rating, Cocklebur: 31 g ai/ha, scale 0 to 100 (0 no effect, 100 complete control)
How it was run: as §2

woolly cupgrass = assay: Test C pre-/postemergence test; type: in vivo, Eriochloa villosa; conditions: for Plant response rating, Cupgrass, Woolly: 31 g ai/ha, scale 0 to 100 (0 no effect, 100 complete control)
How it was run: as §2

giant foxtail [4] = assay: Test C pre-/postemergence test; type: in vivo, Setaria faberii; conditions: for Plant response rating, Foxtail, Giant: 31 g ai/ha, scale 0 to 100 (0 no effect, 100 complete control)
How it was run: as §2

kochia = assay: Test C pre-/postemergence test; type: in vivo, Kochia scoparia; conditions: for Plant response rating, Kochia: 31 g ai/ha, scale 0 to 100 (0 no effect, 100 complete control)
How it was run: as §2

lambsquarters = assay: Test C pre-/postemergence test; type: in vivo, Chenopodium album
How it was run: as §2

eastern black nightshade = assay: Test C pre-/postemergence test; type: in vivo, Solanum ptycanthum; conditions: for Plant response rating, Nightshade: 31 g ai/ha, scale 0 to 100 (0 no effect, 100 complete control)
Source text: Seeds of plant species selected from blackgrass (Alopecurus myosuroides), downy brome (Bromus tectorum), green foxtail (Setaria viridis), Italian ryegrass (Lolium multiflorum), wheat (Triticum aestivum), wild oat (Avena fatua), catchweed bedstraw (Galium aparine), Russian thistle (Salsola kali), […] (Cynodon dactylon), Surinam grass (Brachiaria decumbens), cocklebur (Xanthium strumarium), corn (Zea mays), crabgrass (Digitaria sanguinalis), woolly cupgrass (Eriochloa villosa), giant foxtail (Setaria faberii), Goosegrass (Eleusin indica), johnsongrass (Sorghum halepense), kochia (Kochia scoparia), lambsquarters (Chenopodium album), morningglory (Ipomoea coccinea), eastern black nightshade (Solanum ptycanthum), yellow nutsedge (Cyperus esculentus), pigweed (Amaranthus retroflexus), common ragweed (Ambrosia elation), soybean (Glycine max), common (oilseed) sunflower (Helianthus annuus), and velvetleaf (Abutilon theophrasti) were planted and treated preemergence with test chemicals formulated in a non-phytotoxic solvent mixture which included a surfactant. At the same time, plants selected from these crop and weed species and also winter barley (Hordeum vulgare), canarygrass (Phalaris minor), and chickweed (Stellaria media) were treated with postemergence applications of some of the test chemicals formulated in the same manner. Plants ranged in height from 2 to 18 cm (1- to 4-leaf stage) for postemergence treatments. […] At time of treatment, test pots were flooded to 3 cm above the soil surface, treated by application of test compounds directly to the paddy water, and then maintained at that water depth for the duration of the test. […] A dash (-) response means no test result.

common ragweed = assay: Test C pre-/postemergence test; type: in vivo, Ambrosia elation
How it was run: as §2

[5] = test system: common (oilseed) sunflower; assay: Test C pre-/postemergence test; type: in vivo, Helianthus annuus; conditions: for Plant response rating, Sunflower: 31 g ai/ha, scale 0 to 100 (0 no effect, 100 complete control)
How it was run: as §2

velvetleaf = assay: Test C pre-/postemergence test; type: in vivo, Abutilon theophrasti; conditions: for Plant response rating, Velvetleaf: 31 g ai/ha, scale 0 to 100 (0 no effect, 100 complete control)
How it was run: as §2

[6] = Postemergence, 500 g ai/ha, 0 is no effect, 100 is complete control
[7] = Preemergence, 125 g ai/ha, 0 no effect, 100 complete control
[8] = 62 g ai/ha, Preemergence, scale 0 to 100
[9] = 125 g ai/ha, preemergence, scale 0 (no effect) to 100 (complete control)
[10] = Preemergence, 31 g ai/ha, scale 0 to 100 (0 no effect, 100 complete control)
[11] = preemergence, 250 g ai/ha, scale 0 (no effect) to 100 (complete control)

Cn1nc(C(F)(F)F)c(CS(=O)(=O)c2ccc(Cl)c[n+]2[O-])c1OCC(F)(F)F [Compound 73]
Plant response rating, Foxtail, Giant (giant foxtail [1]; Postemergence, 125 g ai/ha): 70
Foxtail, Giant plant response rating (giant foxtail [1]; [6]): 90
Foxtail, Giant plant response rating (giant foxtail [1]; [7]): 90
Plant response rating, Foxtail, Giant (giant foxtail [1]; Preemergence, 500 g ai/ha): 100
Plant response rating, Morningglory (morningglory; Postemergence, 125 g ai/ha): 0
Morningglory plant response rating (morningglory; [6]): 20
Morningglory plant response rating (morningglory; [7]): 20
Plant response rating, Morningglory (morningglory; Preemergence, 500 g ai/ha): 40
Plant response rating, Pigweed (redroot pigweed; Postemergence, 125 g ai/ha): 10
Pigweed plant response rating (redroot pigweed; [6]): 60
Pigweed plant response rating (redroot pigweed; [7]): 90
Plant response rating, Pigweed (redroot pigweed; Preemergence, 500 g ai/ha): 100
Plant response rating, Wheat (wheat [2]; Postemergence, 125 g ai/ha): 0
Wheat plant response rating (wheat [2]; [6]): 30
Wheat plant response rating (wheat [2]; [7]): 0
Plant response rating, Wheat (wheat [2]; Preemergence, 500 g ai/ha): 50
Blackgrass plant response rating (blackgrass; [8]): 98
Blackgrass plant response rating (blackgrass; [9]): 100
Plant response rating, Blackgrass (blackgrass; [10]): 98
Blackgrass plant response rating (blackgrass; [11]): 100
Bromegrass, Downy plant response rating (downy brome; [8]): 60
Bromegrass, Downy plant response rating (downy brome; [9]): 60
Plant response rating, Bromegrass, Downy (downy brome; Preemergence): 0
Bromegrass, Downy plant response rating (downy brome; [11]): 100
Wheat plant response rating (wheat [3]; [8]): 0
Wheat plant response rating (wheat [3]; [9]): 10
Plant response rating, Wheat (wheat [3]; Preemergence): 0
Wheat plant response rating (wheat [3]; [11]): 20
Oat, Wild plant response rating (wild oat; [8]): 40
Oat, Wild plant response rating (wild oat; [9]): 60
Plant response rating, Oat, Wild (wild oat; Preemergence): 40
Oat, Wild plant response rating (wild oat; [11]): 90
Surinam Grass plant response rating (Surinam grass; [9]): 80
Plant response rating, Surinam Grass (Surinam grass; Preemergence): 40
Surinam Grass plant response rating (Surinam grass; [11]): 80
Cocklebur plant response rating (cocklebur; [8]): 0
Cocklebur plant response rating (cocklebur; [9]): 0
Plant response rating, Cocklebur (cocklebur; Preemergence): 0
Cocklebur plant response rating (cocklebur; [11]): 0
Cupgrass, Woolly plant response rating (woolly cupgrass; [8]): 80
Cupgrass, Woolly plant response rating (woolly cupgrass; [9]): 85
Plant response rating, Cupgrass, Woolly (woolly cupgrass; Preemergence): 60
Cupgrass, Woolly plant response rating (woolly cupgrass; [11]): 85
Foxtail, Giant plant response rating (giant foxtail [4]; [8]): 10
Foxtail, Giant plant response rating (giant foxtail [4]; [9]): 80
Plant response rating, Foxtail, Giant (giant foxtail [4]; Preemergence): 10
Foxtail, Giant plant response rating (giant foxtail [4]; [11]): 80
Kochia plant response rating (kochia; [8]): 100
Kochia plant response rating (kochia; [9]): 100
Plant response rating, Kochia (kochia; Preemergence): 60
Kochia plant response rating (kochia; [11]): 100
Lambsquarters plant response rating (lambsquarters; [8]): 100
Lambsquarters plant response rating (lambsquarters; [9]): 100
Plant response rating, Lambsquarters (lambsquarters; [10]): 50
Lambsquarters plant response rating (lambsquarters; [11]): 100
Nightshade plant response rating (eastern black nightshade; [8]): 80
Nightshade plant response rating (eastern black nightshade; [9]): 80
Plant response rating, Nightshade (eastern black nightshade; Preemergence): 0
Nightshade plant response rating (eastern black nightshade; [11]): 85
Ragweed plant response rating (common ragweed; [8]): 70
Ragweed plant response rating (common ragweed; [9]): 95
Plant response rating, Ragweed (common ragweed; [10]): 60
Ragweed plant response rating (common ragweed; [11]): 100
Sunflower plant response rating [5, 8]: 0
Sunflower plant response rating [5, 9]: 35
Plant response rating, Sunflower ([5]; Preemergence): 0
Sunflower plant response rating [5, 11]: 40
Velvetleaf plant response rating (velvetleaf; [8]): 30
Velvetleaf plant response rating (velvetleaf; [9]): 40
Plant response rating, Velvetleaf (velvetleaf; Preemergence): 0
Velvetleaf plant response rating (velvetleaf; [11]): 70

Cn1nc(OC(F)F)c(CS(=O)(=O)c2cccc[n+]2[O-])c1C(F)(F)F [Compound 80]
Plant response rating, Foxtail, Giant (giant foxtail [1]; Postemergence, 125 g ai/ha): 70
Foxtail, Giant plant response rating (giant foxtail [1]; [6]): 80
Foxtail, Giant plant response rating (giant foxtail [1]; [7]): 90
Plant response rating, Foxtail, Giant (giant foxtail [1]; Preemergence, 500 g ai/ha): 100
Plant response rating, Morningglory (morningglory; Postemergence, 125 g ai/ha): 10
Morningglory plant response rating (morningglory; [6]): 50
Morningglory plant response rating (morningglory; [7]): 60
Plant response rating, Morningglory (morningglory; Preemergence, 500 g ai/ha): 80
Plant response rating, Pigweed (redroot pigweed; Postemergence, 125 g ai/ha): 10
Pigweed plant response rating (redroot pigweed; [6]): 40
Pigweed plant response rating (redroot pigweed; [7]): 70
Plant response rating, Pigweed (redroot pigweed; Preemergence, 500 g ai/ha): 90
Plant response rating, Wheat (wheat [2]; Postemergence, 125 g ai/ha): 30
Wheat plant response rating (wheat [2]; [6]): 60
Wheat plant response rating (wheat [2]; [7]): 10
Plant response rating, Wheat (wheat [2]; Preemergence, 500 g ai/ha): 80
Blackgrass plant response rating (blackgrass; [11]): 90
Bromegrass, Downy plant response rating (downy brome; [8]): 40
Bromegrass, Downy plant response rating (downy brome; [9]): 60
Plant response rating, Bromegrass, Downy (downy brome; Preemergence): 40
Bromegrass, Downy plant response rating (downy brome; [11]): 95
Wheat plant response rating (wheat [3]; [8]): 45
Wheat plant response rating (wheat [3]; [9]): 65
Plant response rating, Wheat (wheat [3]; Preemergence): 10
Wheat plant response rating (wheat [3]; [11]): 80
Oat, Wild plant response rating (wild oat; [8]): 85
Oat, Wild plant response rating (wild oat; [9]): 95
Plant response rating, Oat, Wild (wild oat; Preemergence): 70
Oat, Wild plant response rating (wild oat; [11]): 100
Surinam Grass plant response rating (Surinam grass; [8]): 80
Surinam Grass plant response rating (Surinam grass; [9]): 80
Plant response rating, Surinam Grass (Surinam grass; Preemergence): 70
Surinam Grass plant response rating (Surinam grass; [11]): 100
Cocklebur plant response rating (cocklebur; [8]): 0
Cocklebur plant response rating (cocklebur; [9]): 45
Plant response rating, Cocklebur (cocklebur; Preemergence): 0
Cocklebur plant response rating (cocklebur; [11]): 80
Cupgrass, Woolly plant response rating (woolly cupgrass; [8]): 100
Cupgrass, Woolly plant response rating (woolly cupgrass; [9]): 100
Plant response rating, Cupgrass, Woolly (woolly cupgrass; Preemergence): 100
Cupgrass, Woolly plant response rating (woolly cupgrass; [11]): 100
Foxtail, Giant plant response rating (giant foxtail [4]; [8]): 90
Foxtail, Giant plant response rating (giant foxtail [4]; [9]): 98
Plant response rating, Foxtail, Giant (giant foxtail [4]; Preemergence): 80
Foxtail, Giant plant response rating (giant foxtail [4]; [11]): 100
Kochia plant response rating (kochia; [9]): 70
Plant response rating, Kochia (kochia; Preemergence): 0
Kochia plant response rating (kochia; [11]): 100
Lambsquarters plant response rating (lambsquarters; [9]): 60
Lambsquarters plant response rating (lambsquarters; [11]): 100
Nightshade plant response rating (eastern black nightshade; [8]): 80
Plant response rating, Nightshade (eastern black nightshade; Preemergence): 50
Nightshade plant response rating (eastern black nightshade; [11]): 90
Ragweed plant response rating (common ragweed; [8]): 0
Ragweed plant response rating (common ragweed; [9]): 85
Ragweed plant response rating (common ragweed; [11]): 100
Sunflower plant response rating [5, 8]: 20
Sunflower plant response rating [5, 9]: 40
Plant response rating, Sunflower ([5]; Preemergence): 5
Sunflower plant response rating [5, 11]: 45
Velvetleaf plant response rating (velvetleaf; [8]): 0
Velvetleaf plant response rating (velvetleaf; [9]): 60
Plant response rating, Velvetleaf (velvetleaf; Preemergence): 0
Velvetleaf plant response rating (velvetleaf; [11]): 65
